From patent publication US9695155B2, “Herbicidal substituted pyrimidinyloxy benzene compounds” (E. I. DU PONT DE NEMOURS AND COMPANY, priority 2013, dated 2017)

Tests used:
canarygrass = assay: Test C postemergence; format: in vivo, Phalaris minor; conditions: for Plant response rating (0 to 100), Canarygrass: postemergence; for Plant response rating, Canarygrass: Postemergence, scale 0 to 100 (0 no effect, 100 complete control)
Excerpt: (§1) Seeds of plant species selected from blackgrass (Alopecurus myosuroides), Italian ryegrass (Lolium multiflorum), wheat, winter (winter wheat, Triticum aestivum), galium (catchweed bedstraw, Galium aparine), corn (Zea mays), large (Lg) crabgrass (Digitaria sanguinalis), giant foxtail (Setaria faberii), johnsongrass (Sorghum halepense), lambsquarters (Chenopodium album), morningglory (Ipomoea coccinea), yellow nutsedge (Cyperus esculentus), pigweed (Amaranthus retroflexus), ragweed (common ragweed, Ambrosia elatior), soybean (Glycine max), barnyardgrass (Echinochloa crus-galli), oilseed rape (Brassica napus), waterhemp (common waterhemp, Amaranthus rudis), kochia (Kochia scoparia), wild oat (Avena fatua), surinam grass (Brachiaria decumbens), foxtail, green (green foxtail, Setaria viridis), goosegrass (Eleusine indica), bromegrass, downy (downy bromegrass, Bromus tectorum), nightshade (eastern black nightshade, Solanum ptycanthum), cocklebur (common cocklebur, Xanthium strumarium), cupgrass, woolly (woolly cupgrass, Eriochloa villosa), bermudagrass (Cynodon dactylon), sunflower, (common oilseed sunflower, Helianthus annuus), Russian thistle (Salsola kali), and velvetleaf (Abutilon theophrasti) were planted into a blend of loam soil and sand and treated preemergence with test chemicals formulated in a non-phytotoxic solvent mixture which included a surfactant.
(§2) At the same time, plants selected from these crop and weed species and also barley, winter (winter barley, Hordeum vulgare), windgrass (Apera spica-venti), chickweed (common chickweed, Stellaria media), deadnettle (henbit deadnettle, Lamium amplexicaule), and canarygrass (littleseed canarygrass, Phalaris minor) were planted in pots containing Redi-Earth® planting medium (Scotts Company, 14111 Scottslawn Road, Marysville, Ohio 43041) comprising spaghnum peat moss, vermiculite, wetting agent and starter nutrients and treated with postemergence applications of test chemicals formulated in the same manner. Plants ranged in height from 2 to 18 cm (1- to 4-leaf stage) for postemergence treatments. Treated plants and controls were maintained in a greenhouse for 13 to 15 days, after which time all species were compared to controls and visually evaluated. Plant response ratings, summarized in Table C, are based on a scale of 0 to 100 where 0 is no effect and 100 is complete control. A dash (-) response means no test result.

smartweed [1] = assay: Test E postemergence; format: in vivo, ladysthumb smartweed
Excerpt: (§3) Seeds of plant species selected from corn (Zea mays), soybean (Glycine max), velvetleaf (Abutilon theophrasti), lambsquarters (Chenopodium album), wild poinsettia (Euphorbia heterophylla), palmer pigweed (Amaranthus palmeri), waterhemp (common waterhemp, Amaranthus rudis), surinam grass (Brachiaria decumbens), large (Lg) crabgrass (Digitaria sanguinalis), Brazilian crabgrass (Digitaria horizontalis), fall panicum (Panicum dichotomiflorum), giant foxtail (Setaria faberii), green foxtail (Setaria viridis), goosegrass (Eleusine indica), johnsongrass (Sorghum halepense), ragweed (common ragweed, Ambrosia elatior), barnyardgrass (Echinochloa crus-galli), sandbur (southern sandbur, Cenchrus echinatus), arrowleaf sida (Sida rhombifolia), Italian ryegrass (Lolium multiflorum), dayflower (Virginia (VA) dayflower, Commelina virginica), field bindweed (Convolvulus arvensis), morningglory (Ipomoea coccinea), nightshade (eastern black nightshade, Solanum ptycanthum), kochia (Kochia scoparia), yellow nutsedge (Cyperus esculentus), cocklebur (common cocklebur, Xanthium strumarium), smartweed (ladysthumb smartweed, and hairy beggarticks (Bidens pilosa), were planted into a silt loam soil and treated preemergence with test chemicals formulated in a non-phytotoxic solvent mixture which included a surfactant.
(§4) At the same time, plants from these crop and weed species and also horseweed (Canada horseweed, Conyza canadensis), waterhemp_RES1, (ALS & Triazine resistant common waterhemp, Amaranthus rudis), and waterhemp_RES2, (ALS & HPPD resistant common waterhemp, Amaranthus rudis) were planted in pots containing Redi-Earth® planting medium (Scotts Company, 14111 Scottslawn Road, Marysville, Ohio 43041) comprising spaghnum peat moss, vermiculite, wetting agent and starter nutrients were treated with postemergence applications of test chemicals formulated in the same manner. Plants ranged in height from 2 to 18 cm for postemergence treatments (1- to 4-leaf stage). Treated plants and controls were maintained in a greenhouse for 14 to 21 days, after which time all species were compared to controls and visually evaluated. Plant response ratings, summarized in Table E, are based on a scale of 0 to 100 where 0 is no effect and 100 is complete control. A dash (-) response means no test result.

bromegrass, downy = assay: Test C preemergence; format: in vivo, Bromus tectorum; conditions: for Bromegrass, Downy plant response rating: preemergence, scale 0 (no effect) to 100 (complete control); for Plant response rating, Bromegrass, Downy: Preemergence, 31 g ai/ha, scale 0 to 100, 0 no effect, 100 complete control
Excerpt: as §1, §2

redstem = assay: Test G flood (paddy water application); format: in vivo, Ammannia coccinea; conditions: after 21 days, scale 0 to 100, 0 no effect, 100 complete control
Excerpt: (§5) Three plastic pots (ca. 16-cm diameter) per rate were partially filled with sterilized Tama silt loam soil comprising a 35:50:15 ratio of sand, silt and clay and 2.6% organic matter. Separate plantings for each of the three pots were as follows. Seeds from the U.S. of monochoria (Monochoria vaginalis), sedge, umbrella (small-flower umbrella sedge, Cyperus difformis), hardstem bulrush (Scirpus juncoides), and redstem (purple redstem, Ammannia coccinea), were planted into one 16-cm pot for each rate. Seeds from the U.S. of rice flatsedge (Cyperus iria), bearded sprangletop (Leptochloa fascicularis), one stand of 9 or 10 water seeded rice seedlings (Oryza sativa cv. ‘Japonica—M202’), and two stands of 3 or 4 transplanted rice seedlings (Oryza sativa cv. ‘Japonica—M202’) were planted into one 16-cm pot for each rate. Seeds from the U.S. of barnyardgrass (Echinochloa crus-galli), and late watergrass (Echinochloa oryzicola) were planted into one 16-cm pot for each rate. Plantings were sequential so that crop and weed species were at the 2.0 to 2.5-leaf stage at time of treatment.
(§6) Potted plants were grown in a greenhouse with day/night temperature settings of 30/27° C., and supplemental balanced lighting was provided to maintain a 16-hour photoperiod. Test pots were maintained in the greenhouse until test completion.
(§7) At time of treatment, test pots were flooded to 3 cm above the soil surface, treated by application of test compounds directly to the paddy water, and then maintained at that water depth for the duration of the test. Effects of treatments on rice and weeds were visually evaluated by comparison to untreated controls after 21 days. Plant response ratings, summarized in Table G, are based on a scale of 0 to 100 where 0 is no effect and 100 is complete control. A dash (-) response means no test result.

rice flatsedge = assay: Test G flood (paddy water application); format: in vivo, Cyperus iria; conditions: after 21 days, scale 0 to 100, 0 no effect, 100 complete control
Excerpt: as §5, §6, §7

smartweed [2] = assay: Test E preemergence; format: in vivo, ladysthumb smartweed; conditions: for Smartweed plant response rating: scale 0 to 100 (0 no effect, 100 complete control); for Plant response rating, Smartweed: scale 0 to 100, 0 no effect, 100 complete control
Excerpt: as §3, §4

[3] = Postemergence, 31 g ai/ha, scale 0 to 100
[4] = Postemergence, 62 g ai/ha, scale 0 to 100
[5] = Postemergence, 125 g ai/ha, scale 0 to 100
[6] = postemergence, 16 g ai/ha, scale 0 to 100, 0 no effect, 100 complete control
[7] = Postemergence, 250 g ai/ha, scale 0 to 100

For Clc1cnc(Oc2ccccc2-n2cc(Br)cn2)nc1 [Compound 7, 2-[2-(4-bromo-1H-pyrazol-1-yl)phenoxy]-5-chloropyrimidine], the “Plant response rating (0 to 100), Canarygrass” value (canarygrass; 125 g ai/ha) was 30, the “Plant response rating (0 to 100), Canarygrass” value (canarygrass; 250 g ai/ha) was 80 and the “Plant response rating, Canarygrass” value (canarygrass; 31 g ai/ha, 13 to 15 days) was 5. The “Plant response rating, Canarygrass” value (canarygrass; 62 g ai/ha) was 10, the “Plant response rating, Smartweed” value (smartweed [1]; [3]) was 40 and the “Plant response rating, Smartweed” value (smartweed [1]; [4]) was 70. For the same compound, the “Plant response rating, Smartweed” value (smartweed [1]; [5]) was 100, the “Plant response rating, Smartweed” value (smartweed [1]; postemergence, 8 g ai/ha, scale 0 to 100, 0 no effect, 100 complete control) was 15 and the “Plant response rating, Smartweed” value (smartweed [1]; [6]) was 30. The “Bromegrass, Downy plant response rating” value (bromegrass, downy; 62 g ai/ha) was 5, the “Bromegrass, Downy plant response rating” value (bromegrass, downy; 125 g ai/ha) was 45 and the “Bromegrass, Downy plant response rating” value (bromegrass, downy; 250 g ai/ha) was 75. The “Plant response rating, Bromegrass, Downy” value (bromegrass, downy) was 0.

For Fc1cnc(Oc2ccccc2-n2cc(Br)cn2)nc1 [Compound 10, 2-[2-(4-bromo-1H-pyrazol-1-yl)phenoxy]-5-fluoropyrimidine], the “Plant response rating (0 to 100), Canarygrass” value (canarygrass; 125 g ai/ha) was 25, the “Plant response rating (0 to 100), Canarygrass” value (canarygrass; 250 g ai/ha) was 40 and the “Plant response rating, Canarygrass” value (canarygrass; 31 g ai/ha, 13 to 15 days) was 0. The “Plant response rating, Canarygrass” value (canarygrass; 62 g ai/ha) was 0.

FC(F)(F)c1cnn(-c2ccccc2Oc2ncc(Cl)cn2)c1 [Compound 16] was tested, and the “Plant response rating (0 to 100), Canarygrass” value (canarygrass; 125 g ai/ha) was 60, the “Plant response rating (0 to 100), Canarygrass” value (canarygrass; 250 g ai/ha) was 80 and the “Plant response rating, Canarygrass” value (canarygrass; 31 g ai/ha, 13 to 15 days) was 10. The “Plant response rating, Canarygrass” value (canarygrass; 62 g ai/ha) was 30, the “Plant response rating, Redstem” value (redstem; 32 g ai/ha) was 0 and the “Plant response rating, Redstem” value (redstem; 64 g ai/ha) was 60. The “Plant response rating, Redstem” value (redstem; 125 g ai/ha) was 85, the “Plant response rating, Redstem” value (redstem; 250 g ai/ha) was 95 and the “Bromegrass, Downy plant response rating” value (bromegrass, downy; 62 g ai/ha) was 60. The “Bromegrass, Downy plant response rating” value (bromegrass, downy; 125 g ai/ha) was 90, the “Bromegrass, Downy plant response rating” value (bromegrass, downy; 250 g ai/ha) was 95 and the “Plant response rating, Bromegrass, Downy” value (bromegrass, downy) was 30. For the same compound, the “Plant response rating, Flatsedge, Rice” value (rice flatsedge; 32 g ai/ha) was 40, the “Plant response rating, Flatsedge, Rice” value (rice flatsedge; 64 g ai/ha) was 85 and the “Plant response rating, Flatsedge, Rice” value (rice flatsedge; 125 g ai/ha) was 100. For the same compound, the “Plant response rating, Flatsedge, Rice” value (rice flatsedge; 250 g ai/ha) was 100.

FC(F)(F)c1cnn(-c2ccccc2Oc2ncc(Br)cn2)c1 [Compound 18, 5-bromo-2-[2-[4-(trifluoromethyl)-1H-pyrazol-1-yl]phenoxy]pyrimidine] was tested, and the “Plant response rating, Redstem” value (redstem; 32 g ai/ha) was 0, the “Plant response rating, Redstem” value (redstem; 64 g ai/ha) was 0 and the “Plant response rating, Redstem” value (redstem; 125 g ai/ha) was 75. For the same compound, the “Plant response rating, Redstem” value (redstem; 250 g ai/ha) was 90, the “Bromegrass, Downy plant response rating” value (bromegrass, downy; 62 g ai/ha) was 10 and the “Bromegrass, Downy plant response rating” value (bromegrass, downy; 125 g ai/ha) was 50. The “Bromegrass, Downy plant response rating” value (bromegrass, downy; 250 g ai/ha) was 95, the “Plant response rating, Bromegrass, Downy” value (bromegrass, downy) was 0 and the “Plant response rating, Flatsedge, Rice” value (rice flatsedge; 32 g ai/ha) was 30. The “Plant response rating, Flatsedge, Rice” value (rice flatsedge; 64 g ai/ha) was 75, the “Plant response rating, Flatsedge, Rice” value (rice flatsedge; 125 g ai/ha) was 100 and the “Plant response rating, Flatsedge, Rice” value (rice flatsedge; 250 g ai/ha) was 100.

For N#Cc1cccc(Oc2ncc(Cl)cn2)c1-n1cc(C(F)(F)F)cn1 [Compound 58, 3-[(5-chloro-2-pyrimidinyl)oxy]-2-[4-(trifluoromethyl)-1H-pyrazol-1-yl]benzonitrile], the “Plant response rating, Smartweed” value (smartweed [1]; [3]) was 65, the “Plant response rating, Smartweed” value (smartweed [1]; [4]) was 85 and the “Plant response rating, Smartweed” value (smartweed [1]; [5]) was 100. For the same compound, the “Plant response rating, Smartweed” value (smartweed [1]; [7]) was 100 and the “Plant response rating, Smartweed” value (smartweed [1]; [6]) was 50.

With N#Cc1cccc(Oc2ncc(Br)cn2)c1-n1cc(C(F)(F)F)cn1 [Compound 59, 3-[(5-bromo-2-pyrimidinyl)oxy]-2-[4-(trifluoromethyl)-1H-pyrazol-1-yl]benzonitrile] the “Plant response rating, Smartweed” value (smartweed [1]; [4]) was 80, the “Plant response rating, Smartweed” value (smartweed [1]; [5]) was 100 and the “Plant response rating, Smartweed” value (smartweed [1]; [7]) was 100. The “Plant response rating, Smartweed” value (smartweed [1]; [6]) was 55.

For N#Cc1cccc(Oc2ncc(F)cn2)c1-n1cc(Cl)cn1 [Compound 73], the “Smartweed plant response rating” value (smartweed [2]; 16 g ai/ha) was 0, the “Smartweed plant response rating” value (smartweed [2]; 31 g ai/ha) was 0 and the “Smartweed plant response rating” value (smartweed [2]; 62 g ai/ha) was 20. The “Plant response rating, Smartweed” value (smartweed [2]; 125 g ai/ha) was 98 and the “Plant response rating, Smartweed” value (smartweed [2]; 250 g ai/ha) was 98.

FC(F)c1cccc(Oc2ncc(Cl)cn2)c1-n1cc(Br)cn1 [Compound 194, 2-[2-(4-bromo-1H-pyrazol-1-yl)-3-(difluoromethyl)phenoxy]-5-chloropyrimidine] was tested, and the “Smartweed plant response rating” value (smartweed [2]; 31 g ai/ha) was 0 and the “Smartweed plant response rating” value (smartweed [2]; 62 g ai/ha) was 90.
